Experimental data: patent US5532231A, “Antibacterial agent” (priority 1994, dated 1996)
“Also recorded” adds a separate entry of the source.

Columns and labels:
Mycobacteria smegmatis = experiment: Antimicrobial spectrum, liquid media, viable cell count; format: cell-based, Mycobacterium smegmatis; conditions: saturating concentrations
Protocol: Saturated solutions of TA and Focusin were prepared by adding 1.14 μg TA and 7 μg Focusin to 1 ml LB (final conc. of 1% ethanol). About 10^5 bacteria of various strains were then added. The control was bacteria in the same medium with no antibacterial agents. The bacteria were introduced at 37° C. with shaking at 100 rpm. When the control became turbid, viable cell count was performed on LB agar plates. Growth inhibition is presented as percentage of the no antibiotic control.

E. coli ESS Kan^r [1] = experiment: Sensitivity to combined exposure to light and air (remaining activity by paper disc bioassay); format: physicochemical, Escherichia coli
Protocol: (§1) Antibiotic activity against E. coli ESS Kan^r was determined by the paper disc filter assay (Leo et al., 1945). Unknown quantities of antibiotic TA or Focusin, dissolved in ethanol, saline or NB were applied to paper disc filters (6 mm diameter; Schleicher and Schull). After allowing the ethanol to evaporate in the hood for about 15 mins, the dry filters were placed on nutrient broth plates which had been overlaid with an overnight culture of E. coli ESS Kan^r as described above.
(§2) The diameter of the zone of inhibition was recorded after 18 hours in incubation at 37° C. The concentration of the antibacterial agents were determined from a standard inhibition curve prepared with known quantities of TA and Focusin.
100 ng of TA and Focusin dissolved in ethanol were applied to paper filters and allowed to dry in a hood for 15 mins. The filters were then exposed to light from a fluorescent lamp in the hood; the distance from the lamp to the filters was approximately 40 cm. The controls were placed in the dark under a plastic box within the hood.
After exposure of the filters to the light for varying periods of time, the remaining activity of the agents was measured by the paper disc bioassay and the results are shown in the following Table 1: […]

[2] = format: physicochemical
Protocol: Focusin and TA at concentrations of 3 mg/ml were diluted either in ethanol or in saline containing 1% ethanol to yield a final concentration in each case of 30 μg/ml. The solutions were mixed at 37° C. for one hour under shaking, and then were centrifuged at 5000 g for 10 minutes. Several samples were taken from the supernatants of the tubes and were applied on disc filters in order to determine the concentration of the antibacterial agents in the saline and ethanol solutions, by the paper disc bioassay method.

E. coli ESS Kan^r [3] = experiment: Paper disc filter antibiotic assay (zone of inhibition); format: cell-based, Escherichia coli
Protocol: Escherichia coli ESS Kan^r, is a kanamycin resistant strain of E. coli ESS, derived by transducing E. coli ESS with P1:TnV, Kan^r. This strain was used for the standard antibiotic assays.
LB Kan medium was solidified by 1.5% Bacto agar (Difco). For the antibiotic assay, Nutrient Broth agar plates were used. NB medium is 0.8% Nutrient Broth (Difco) containing 0.5% NaCl (Merck). NB was solidified by 1.8% Bacto agar (Difco). The NB plates were overlaid by 3.5 ml NB soft agar (0.9% Bacto agar) mixed with 0.1 ml E. coli ESS Kan^r overnight culture.
as §1, §2

E. coli ESS [4] = experiment: Release of Focusin from mouse tissue: inhibition by the 4th wash liquid; format: cell-based, Escherichia coli; conditions: for Inhibition % by the 4th wash liquid: 10 μg Focusin
Protocol: (§3) Focusin was tested in the same manner as that described above (under 8.1) with the exception that the tissues in the test tube were washed four times with a solution of 1 ml sterile saline. Each saline wash was for 1 hour at 37° C. Following incubation, the washing saline solution was added to an exponentially growing cultures of E. coli ESS in a concentration of 10^5 cells/ml.
(§4) The cultures with the saline wash were incubated at 37° C. for 6 hours and then viable cell count was performed in order to estimate the amount of killing by the antibacterial agent that were released from the tissues. After the four washes the tissues were transferred to 10^5 E. coli ESS log cultures and were then incubated for 5 hours. The tissues were transferred in this way for three times, each time the percentage of inhibition by the treated tissue was measured by viable count.
(§5) The tissues were treated as described in Section 8.2 above.

E. coli ESS [5] = experiment: Killing effect of the washed treated mouse tissue; format: cell-based, Escherichia coli; conditions: for Inhibition % by the treated tissue*** / Inhibition % by the treated tissue**: 10 μg Focusin; for Inhibition % by the treated tissue***: after third transfer
Protocol: as §3, §4, §5
After the fourth wash, the treated tissues were transferred to E. coli ESS cultures (10^5 cells) in nutrient broth. The culture tubes were then incubated at 37° C. for 6 hours and the extent of growth inhibition was measured by viable cell count. The treated tissues were transferred to E. coli cultures two more times (a total of three times), and each time the percentage of growth inhibition by the treated tissues was checked.

CCCC1OC(=O)C(C)CC(C)CCCCC(=O)CCCC(CC)CCCC(COC)CCC(O)C(O)CC(O)CNC1=O (stereo not drawn) [Focusin]
killing (Mycobacteria smegmatis): 0% | activity after exposure to light and air (E. coli ESS Kan^r [1]; 0 hours): 100% | activity after exposure to light and air (E. coli ESS Kan^r [1]; 1 hour): 100% | activity after exposure to light and air (E. coli ESS Kan^r [1]; 4 hours): 100% | activity after exposure to light and air (E. coli ESS Kan^r [1]; 6 hours): 100% | activity after exposure to light and air (E. coli ESS Kan^r [1]; 8 hours): 100% | activity after exposure to light and air (E. coli ESS Kan^r [1]; 20 hours): 100% | stability to exposure to light and air (in words) (E. coli ESS Kan^r [1]; combined light and air, up to 20 hours): much more stable to exposure to light and air than the TA antibiotic; also recorded: completely resistant to breakdown | aqueous solubility compared with TA (in words) [2]: higher aqueous solubility than TA | solubility in ethanol [2]: completely soluble | solubility in saline ([2]; saline with 1% ethanol, 1 h): about 7 μg/ml | activity relative to TA at high concentrations (E. coli ESS Kan^r [3]; high concentrations): 1/10 | activity relative to TA at low concentrations (E. coli ESS Kan^r [3]; low concentrations): approximately 1/8 | amount giving an inhibition zone of 11 mm (E. coli ESS Kan^r [3]; zone 11 mm, paper disc): 640 ng | amount required to obtain a zone of inhibition of about 2 mm (E. coli ESS Kan^r [3]; zone about 2 mm, paper disc): 60 ng | inhibition of E. coli growth by the fourth liquid wash (in words) (E. coli ESS [4]; all tissues except liver): completely inhibit the E. coli growth | Inhibition % by the 4th wash liquid (E. coli ESS [4]; bladder): 100% | Inhibition % by the 4th wash liquid (E. coli ESS [4]; eye): 100% | Inhibition % by the 4th wash liquid (E. coli ESS [4]; heart): 100% | Inhibition % by the 4th wash liquid (E. coli ESS [4]; intestine): 100% | Inhibition % by the 4th wash liquid (E. coli ESS [4]; kidney): 100% | Inhibition % by the 4th wash liquid (E. coli ESS [4]; liver): 67% | Inhibition % by the 4th wash liquid (E. coli ESS [4]; lungs): 100% | Inhibition % by the 4th wash liquid (E. coli ESS [4]; spleen): 100% | Inhibition % by the 4th wash liquid (E. coli ESS [4]; teeth): 100% | inhibition by the washed tissues containing bound focusin (E. coli ESS [5]; all tissues, first transfer): ≥ 99% | inhibition after the third transfer (in words) (E. coli ESS [5]; bladder and eye): no inhibition was observed | Inhibition % by the treated tissue*** (E. coli ESS [5]; bladder): 0% | Inhibition % by the treated tissue** (E. coli ESS [5]; bladder, first transfer): > 99% | Inhibition % by the treated tissue*** (E. coli ESS [5]; eye): 0% | Inhibition % by the treated tissue** (E. coli ESS [5]; eye, first transfer): > 99% | Inhibition % by the treated tissue*** (E. coli ESS [5]; heart): 98% | Inhibition % by the treated tissue** (E. coli ESS [5]; heart, first transfer): 100% | Inhibition % by the treated tissue*** (E. coli ESS [5]; intestine): 38% | Inhibition % by the treated tissue** (E. coli ESS [5]; intestine, first transfer): 100% | Inhibition % by the treated tissue*** (E. coli ESS [5]; kidney): 90% | Inhibition % by the treated tissue** (E. coli ESS [5]; kidney, first transfer): 100% | Inhibition % by the treated tissue*** (E. coli ESS [5]; liver): 100% | Inhibition % by the treated tissue** (E. coli ESS [5]; liver, first transfer): 99% | Inhibition % by the treated tissue*** (E. coli ESS [5]; lungs): 17% | Inhibition % by the treated tissue** (E. coli ESS [5]; lungs, first transfer): 100% | Inhibition % by the treated tissue*** (E. coli ESS [5]; spleen): 98% | Inhibition % by the treated tissue** (E. coli ESS [5]; spleen, first transfer): 100% | Inhibition % by the treated tissue*** (E. coli ESS [5]; teeth): 91% | Inhibition % by the treated tissue** (E. coli ESS [5]; teeth, first transfer): 100%
